Results reported in ChEMBL document CHEMBL6182931, “Chemical Evolution of Aplithianine Class of Serine/Threonine Kinase Inhibitors” (J Med Chem, 2025).
Activity calls are given as the source filed them. The rule behind the calls is not given here.

Assays:
[1] = Inhibition of DNAJB1-PKAcalpha (unknown origin) using biotinylated-peptide substrate CREB incubated for 45 mins in presence of ATP and cAMP by ELISA; set-up: species or system Homo sapiens
[2] = Inhibition of DNAJB1-PKAcalpha (unknown origin) overexpressed in mouse NIH/3T3 cells assessed as inhibition of CREB phosphorylation at Ser133 residue preincubated for 30 mins followed by forskolin addition and measured after 30 mins by fluorescence based multilabel reader analysis; assay type: cell-based; conditions: NIH3T3
OVCAR-4 = experiment: Antiproliferative activity against human OVCAR-4 cells assessed as growth inhibition; assay type: functional, cell-based
MOLT-4 = experiment: Antiproliferative activity against human MOLT-4 cells assessed as growth inhibition; assay type: functional
MDA-MB-468 = experiment: Antiproliferative activity against human MDA-MB-468 cells assessed as growth inhibition; assay type: functional, cell-based
LOX IMVI = experiment: Antiproliferative activity against human LOX IMVI cells assessed as growth inhibition; assay type: functional
SR = experiment: Antiproliferative activity against human SR cells assessed as growth inhibition; assay type: functional
NCI/ADR-RES = experiment: Antiproliferative activity against human NCI/ADR-RES cells assessed as growth inhibition; assay type: functional, cell-based
Homo sapiens [3] = species on record: Homo sapiens; experiment: Induction of thermal stabilization of His-tagged DNAJB1-PKAcalpha (unknown origin) incubated for 15 min by differential scanning fluorometric analysis
Homo sapiens [4] = species on record: Homo sapiens; experiment: Induction of thermal stabilization of His-tagged DNAJB1-PKAcalpha (unknown origin) assessed as change in melting temperature incubated for 15 min by differential scanning fluorometric analysis
[5] = target: cAMP-dependent protein kinase catalytic subunit beta (Homo sapiens) (UniProt P22694); experiment: Inhibition of human PKAbeta at 50 nM in presence of ATP by radiometric Hotspot kinase assay
[6] = target: Dual specificity protein kinase CLK1 (Homo sapiens) (UniProt P49759); experiment: Inhibition of human CLK1 at 50 nM in presence of ATP by radiometric Hotspot kinase assay relative to control
[7] = target: Dual specificity protein kinase CLK2 (Homo sapiens) (UniProt P49760); experiment: Inhibition of human CLK2 at 50 nM in presence of ATP by radiometric Hotspot kinase assay relative to control
[8] = target: Dual specificity protein kinase CLK3 (Homo sapiens) (UniProt P49761); experiment: Inhibition of human CLK3 at 50 nM in presence of ATP by radiometric Hotspot kinase assay relative to control
[9] = target: Dual specificity protein kinase CLK4 (Homo sapiens) (UniProt Q9HAZ1); experiment: Inhibition of human CLK4 at 50 nM in presence of ATP by radiometric Hotspot kinase assay relative to control
[10] = target: Dual specificity tyrosine-phosphorylation-regulated kinase 1A (Homo sapiens) (UniProt Q13627); experiment: Inhibition of human DYRK1A at 50 nM in presence of ATP by radiometric Hotspot kinase assay relative to control
[11] = target: Dual specificity tyrosine-phosphorylation-regulated kinase 1B (Homo sapiens) (UniProt Q9Y463); experiment: Inhibition of human DYRK1B at 50 nM in presence of ATP by radiometric Hotspot kinase assay relative to control
[12] = target: T1, Dual specificity tyrosine-phosphorylation-regulated kinase 2 (Homo sapiens) (UniProt Q92630); experiment: Inhibition of human DYRK2 at 50 nM in presence of ATP by radiometric Hotspot kinase assay relative to control
T1 sequence (whole entry): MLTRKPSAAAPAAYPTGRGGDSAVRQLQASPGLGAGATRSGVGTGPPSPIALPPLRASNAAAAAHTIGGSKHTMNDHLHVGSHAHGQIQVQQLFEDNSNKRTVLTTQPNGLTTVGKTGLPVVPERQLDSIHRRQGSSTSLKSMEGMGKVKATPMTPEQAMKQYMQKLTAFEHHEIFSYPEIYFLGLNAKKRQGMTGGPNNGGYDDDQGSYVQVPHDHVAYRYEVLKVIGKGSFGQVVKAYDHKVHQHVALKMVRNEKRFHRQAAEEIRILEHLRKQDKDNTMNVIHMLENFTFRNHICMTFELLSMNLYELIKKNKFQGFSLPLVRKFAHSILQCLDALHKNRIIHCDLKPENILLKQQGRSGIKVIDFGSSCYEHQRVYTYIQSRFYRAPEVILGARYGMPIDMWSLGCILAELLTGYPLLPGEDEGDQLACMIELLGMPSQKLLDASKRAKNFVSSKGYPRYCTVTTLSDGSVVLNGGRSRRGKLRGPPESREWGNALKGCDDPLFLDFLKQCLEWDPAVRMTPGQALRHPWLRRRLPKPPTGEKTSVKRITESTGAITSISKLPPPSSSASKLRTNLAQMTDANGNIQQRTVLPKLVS

[13] = target: T2, Dual specificity tyrosine-phosphorylation-regulated kinase 3 (Homo sapiens) (UniProt O43781); experiment: Inhibition of human DYRK3 at 50 nM in presence of ATP by radiometric Hotspot kinase assay relative to control
T2 sequence (whole entry): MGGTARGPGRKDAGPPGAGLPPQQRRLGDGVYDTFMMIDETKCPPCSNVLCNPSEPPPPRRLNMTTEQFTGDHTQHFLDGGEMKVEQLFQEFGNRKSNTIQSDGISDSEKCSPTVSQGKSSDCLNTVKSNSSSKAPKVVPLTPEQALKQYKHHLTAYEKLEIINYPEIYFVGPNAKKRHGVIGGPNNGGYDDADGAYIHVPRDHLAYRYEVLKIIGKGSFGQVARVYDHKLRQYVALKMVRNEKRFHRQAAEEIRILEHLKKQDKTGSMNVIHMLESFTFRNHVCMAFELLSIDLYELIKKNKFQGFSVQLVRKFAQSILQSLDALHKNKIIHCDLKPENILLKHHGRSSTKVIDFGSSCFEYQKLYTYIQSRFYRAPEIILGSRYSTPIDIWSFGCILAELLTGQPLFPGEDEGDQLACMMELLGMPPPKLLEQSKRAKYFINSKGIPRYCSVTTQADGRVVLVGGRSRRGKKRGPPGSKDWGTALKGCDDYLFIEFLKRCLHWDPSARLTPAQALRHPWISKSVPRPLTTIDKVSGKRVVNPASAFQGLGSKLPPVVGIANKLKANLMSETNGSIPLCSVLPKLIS

[14] = target: Dual specificity tyrosine-phosphorylation-regulated kinase 4 (Homo sapiens) (UniProt Q9NR20); experiment: Inhibition of human DYRK4 at 50 nM in presence of ATP by radiometric Hotspot kinase assay relative to control
[15] = target: T3, cGMP-dependent protein kinase 1 (Homo sapiens) (UniProt Q13976); conditions: dose 50.0 nM
T3 sequence (whole entry): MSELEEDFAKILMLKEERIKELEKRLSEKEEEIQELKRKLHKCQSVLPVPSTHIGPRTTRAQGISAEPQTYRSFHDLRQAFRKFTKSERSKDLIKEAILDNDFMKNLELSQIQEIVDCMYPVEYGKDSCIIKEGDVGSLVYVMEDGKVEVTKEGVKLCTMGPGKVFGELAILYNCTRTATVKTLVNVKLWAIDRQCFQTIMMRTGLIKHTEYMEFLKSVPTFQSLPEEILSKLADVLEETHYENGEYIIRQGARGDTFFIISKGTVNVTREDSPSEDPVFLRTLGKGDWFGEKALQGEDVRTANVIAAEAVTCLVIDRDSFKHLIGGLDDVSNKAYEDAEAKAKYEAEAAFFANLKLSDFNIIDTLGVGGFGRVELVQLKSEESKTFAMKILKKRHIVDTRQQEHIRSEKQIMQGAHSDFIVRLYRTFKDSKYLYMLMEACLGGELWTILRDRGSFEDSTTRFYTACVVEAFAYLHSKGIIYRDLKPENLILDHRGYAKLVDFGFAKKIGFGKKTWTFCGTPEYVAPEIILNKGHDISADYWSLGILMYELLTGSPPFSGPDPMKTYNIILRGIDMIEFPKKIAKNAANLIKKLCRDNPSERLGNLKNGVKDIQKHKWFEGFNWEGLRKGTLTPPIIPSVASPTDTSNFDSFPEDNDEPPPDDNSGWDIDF
Description: Inhibition of human PKG1alpha at 50 nM in presence of ATP by radiometric Hotspot kinase assay

[16] = target: cAMP-dependent protein kinase catalytic subunit alpha (Homo sapiens) (UniProt P17612); conditions: dose 50.0 nM
Description: Inhibition of human PKAalpha at 50 nM in presence of ATP by radiometric Hotspot kinase assay relative to control

[17] = Aqueous solubility of compound in PBS at pH 7.4 by shake-flask method; assay type: physicochemical
Albumin = Albumin (Homo sapiens, UniProt P02768); experiment: Binding affinity to human serum albumin assessed as protein binding at 10 uM by equilibrium dialysis technique relative to control; assay type: ADME; conditions: isolated protein
[18] = Apparent permeability across apical to basolateral side in human Caco-2 cells at 10 uM; assay type: ADME, cell-based; conditions: caco-2, 10 µM
[19] = Apparent permeability across basolateral to apical side in human Caco-2 cells at 10 uM; assay type: ADME, cell-based; conditions: caco-2, 10 µM
[20] = Metabolic stability in human liver microsomes assessed as half-life at 0.1 uM measured after 60 mins; assay type: ADME, Microsome; conditions: 1 h
[21] = Metabolic stability in human liver microsomes assessed as intrinsic clearance at 0.1 uM measured after 60 mins; assay type: ADME, Microsome; conditions: 1 h
[22] = Drug metabolism in human liver microsomes at 0.1 uM measured after 60 mins; assay type: ADME, Microsome; conditions: 1 h
hERG (KCNH2) = hERG (KCNH2) (Homo sapiens, UniProt Q12809); experiment: Inhibition of human ERG expressed in CHO cells at 10 uM by electrophysiological analysis relative to control; assay type: toxicity, cell-based; conditions: CHO cells that express human ERG
[23] = target: RAC-alpha serine/threonine-protein kinase (Homo sapiens) (UniProt P31749); experiment: Inhibition of human Akt1 at 50 nM in presence of ATP by radiometric Hotspot kinase assay
[24] = target: RAC-beta serine/threonine-protein kinase (Homo sapiens) (UniProt P31751); experiment: Inhibition of human Akt2 at 50 nM in presence of ATP by radiometric Hotspot kinase assay
[25] = target: RAC-gamma serine/threonine-protein kinase (Homo sapiens) (UniProt Q9Y243); experiment: Inhibition of human Akt3 at 50 nM in presence of ATP by radiometric Hotspot kinase assay
[26] = target: Receptor-type tyrosine-protein kinase FLT3 (Homo sapiens) (UniProt P36888); experiment: Inhibition of human FLT3 at 50 nM in presence of ATP by radiometric Hotspot kinase assay relative to control
[27] = target: NT-3 growth factor receptor (Homo sapiens) (UniProt Q16288); experiment: Inhibition of human TRKC at 50 nM in presence of ATP by radiometric Hotspot kinase assay relative to control
[28] = system: Panel NCI-60 (60 carcinoma cell lines); experiment: Antiproliferative activity against human Panel NCI-60 (60 carcinoma cell lines) assessed as growth inhibition; assay type: functional

Sequence of Dual specificity protein kinase CLK1 (Homo sapiens) (P49759 whole entry, looked up): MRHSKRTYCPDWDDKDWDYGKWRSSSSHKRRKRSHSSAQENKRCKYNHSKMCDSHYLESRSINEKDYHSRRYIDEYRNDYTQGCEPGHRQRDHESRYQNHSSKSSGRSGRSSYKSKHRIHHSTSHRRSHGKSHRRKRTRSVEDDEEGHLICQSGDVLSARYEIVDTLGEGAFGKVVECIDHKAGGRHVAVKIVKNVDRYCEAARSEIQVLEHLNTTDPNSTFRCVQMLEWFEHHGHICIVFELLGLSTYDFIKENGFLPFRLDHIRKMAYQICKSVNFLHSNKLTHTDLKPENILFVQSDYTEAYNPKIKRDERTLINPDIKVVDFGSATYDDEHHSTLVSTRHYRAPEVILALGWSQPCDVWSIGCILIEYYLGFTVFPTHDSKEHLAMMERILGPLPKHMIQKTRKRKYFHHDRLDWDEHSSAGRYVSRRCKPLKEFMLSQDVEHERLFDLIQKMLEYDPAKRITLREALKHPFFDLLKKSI
Sequence of Dual specificity protein kinase CLK2 (Homo sapiens) (P49760 whole entry, looked up): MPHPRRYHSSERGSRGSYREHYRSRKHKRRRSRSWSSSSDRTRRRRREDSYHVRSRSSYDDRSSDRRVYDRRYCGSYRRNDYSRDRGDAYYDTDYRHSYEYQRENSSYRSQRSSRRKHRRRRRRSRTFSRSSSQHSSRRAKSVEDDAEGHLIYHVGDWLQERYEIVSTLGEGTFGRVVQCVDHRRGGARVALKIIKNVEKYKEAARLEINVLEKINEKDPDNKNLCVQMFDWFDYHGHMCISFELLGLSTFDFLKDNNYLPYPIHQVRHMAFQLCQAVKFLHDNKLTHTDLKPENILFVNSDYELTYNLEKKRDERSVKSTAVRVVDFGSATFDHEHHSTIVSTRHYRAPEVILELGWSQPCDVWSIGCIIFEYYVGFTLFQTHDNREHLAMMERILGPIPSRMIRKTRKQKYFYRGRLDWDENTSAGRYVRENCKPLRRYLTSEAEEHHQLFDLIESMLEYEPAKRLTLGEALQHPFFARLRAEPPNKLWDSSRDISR
Sequence of Dual specificity tyrosine-phosphorylation-regulated kinase 1B (Homo sapiens) (Q9Y463 whole entry, looked up): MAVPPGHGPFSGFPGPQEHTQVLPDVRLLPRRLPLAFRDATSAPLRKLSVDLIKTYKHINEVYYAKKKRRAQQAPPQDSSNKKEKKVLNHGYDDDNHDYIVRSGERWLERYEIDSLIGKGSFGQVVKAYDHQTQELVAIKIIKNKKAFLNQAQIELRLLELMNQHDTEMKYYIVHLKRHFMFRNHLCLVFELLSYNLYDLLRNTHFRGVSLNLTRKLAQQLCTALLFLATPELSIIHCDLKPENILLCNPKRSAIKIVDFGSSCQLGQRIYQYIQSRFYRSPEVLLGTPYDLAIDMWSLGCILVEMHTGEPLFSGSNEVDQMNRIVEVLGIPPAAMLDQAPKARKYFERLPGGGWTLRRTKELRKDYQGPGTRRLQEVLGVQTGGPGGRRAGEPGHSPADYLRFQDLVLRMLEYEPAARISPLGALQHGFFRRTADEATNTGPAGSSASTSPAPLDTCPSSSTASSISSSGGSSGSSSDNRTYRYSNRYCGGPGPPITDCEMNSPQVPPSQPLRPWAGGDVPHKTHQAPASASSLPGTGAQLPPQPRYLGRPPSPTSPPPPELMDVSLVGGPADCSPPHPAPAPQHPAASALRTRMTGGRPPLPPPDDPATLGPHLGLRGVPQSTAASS
Sequence of Dual specificity protein kinase CLK4 (Homo sapiens) (Q9HAZ1 whole entry, looked up): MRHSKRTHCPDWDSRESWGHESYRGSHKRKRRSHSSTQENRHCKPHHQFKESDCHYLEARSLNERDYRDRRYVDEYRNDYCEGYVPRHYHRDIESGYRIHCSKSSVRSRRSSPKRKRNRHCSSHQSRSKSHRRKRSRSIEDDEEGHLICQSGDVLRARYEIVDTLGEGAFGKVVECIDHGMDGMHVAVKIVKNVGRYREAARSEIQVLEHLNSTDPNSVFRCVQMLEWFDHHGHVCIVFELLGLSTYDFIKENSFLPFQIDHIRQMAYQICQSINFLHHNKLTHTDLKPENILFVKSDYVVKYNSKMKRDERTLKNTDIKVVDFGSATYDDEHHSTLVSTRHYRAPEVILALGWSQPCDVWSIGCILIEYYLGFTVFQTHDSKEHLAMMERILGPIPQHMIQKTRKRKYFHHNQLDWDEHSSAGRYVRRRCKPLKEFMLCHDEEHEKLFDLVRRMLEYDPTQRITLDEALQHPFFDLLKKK
Sequence of Dual specificity tyrosine-phosphorylation-regulated kinase 4 (Homo sapiens) (Q9NR20 whole entry): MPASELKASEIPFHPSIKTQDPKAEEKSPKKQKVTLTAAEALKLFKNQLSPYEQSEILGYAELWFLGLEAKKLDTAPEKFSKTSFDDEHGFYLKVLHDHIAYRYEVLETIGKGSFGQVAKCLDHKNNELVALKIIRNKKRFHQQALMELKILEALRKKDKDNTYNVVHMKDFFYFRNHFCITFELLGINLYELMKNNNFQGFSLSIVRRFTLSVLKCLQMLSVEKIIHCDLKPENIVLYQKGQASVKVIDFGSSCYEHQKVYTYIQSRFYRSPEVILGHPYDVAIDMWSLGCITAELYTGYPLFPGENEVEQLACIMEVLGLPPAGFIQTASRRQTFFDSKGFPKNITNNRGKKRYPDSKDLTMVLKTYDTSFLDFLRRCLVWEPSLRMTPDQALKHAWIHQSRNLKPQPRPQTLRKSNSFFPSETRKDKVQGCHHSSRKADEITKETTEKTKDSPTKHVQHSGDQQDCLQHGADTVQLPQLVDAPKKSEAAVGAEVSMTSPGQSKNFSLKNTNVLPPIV
Sequence of Dual specificity protein kinase CLK3 (Homo sapiens) (P49761 whole entry, looked up): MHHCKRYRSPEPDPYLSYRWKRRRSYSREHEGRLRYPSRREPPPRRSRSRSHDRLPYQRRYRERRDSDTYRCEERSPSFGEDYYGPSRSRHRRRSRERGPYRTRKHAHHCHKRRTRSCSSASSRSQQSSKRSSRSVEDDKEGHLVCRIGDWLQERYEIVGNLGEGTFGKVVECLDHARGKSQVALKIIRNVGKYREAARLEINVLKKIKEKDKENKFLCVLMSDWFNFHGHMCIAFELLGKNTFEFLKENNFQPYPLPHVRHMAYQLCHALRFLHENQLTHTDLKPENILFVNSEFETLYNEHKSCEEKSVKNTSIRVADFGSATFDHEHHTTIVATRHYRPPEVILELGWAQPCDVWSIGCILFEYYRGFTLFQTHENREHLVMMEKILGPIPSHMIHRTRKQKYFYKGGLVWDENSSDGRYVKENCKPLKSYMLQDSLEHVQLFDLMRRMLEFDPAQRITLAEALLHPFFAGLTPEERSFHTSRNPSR
Sequence of NT-3 growth factor receptor (Homo sapiens) (Q16288 32-839 limits assumed): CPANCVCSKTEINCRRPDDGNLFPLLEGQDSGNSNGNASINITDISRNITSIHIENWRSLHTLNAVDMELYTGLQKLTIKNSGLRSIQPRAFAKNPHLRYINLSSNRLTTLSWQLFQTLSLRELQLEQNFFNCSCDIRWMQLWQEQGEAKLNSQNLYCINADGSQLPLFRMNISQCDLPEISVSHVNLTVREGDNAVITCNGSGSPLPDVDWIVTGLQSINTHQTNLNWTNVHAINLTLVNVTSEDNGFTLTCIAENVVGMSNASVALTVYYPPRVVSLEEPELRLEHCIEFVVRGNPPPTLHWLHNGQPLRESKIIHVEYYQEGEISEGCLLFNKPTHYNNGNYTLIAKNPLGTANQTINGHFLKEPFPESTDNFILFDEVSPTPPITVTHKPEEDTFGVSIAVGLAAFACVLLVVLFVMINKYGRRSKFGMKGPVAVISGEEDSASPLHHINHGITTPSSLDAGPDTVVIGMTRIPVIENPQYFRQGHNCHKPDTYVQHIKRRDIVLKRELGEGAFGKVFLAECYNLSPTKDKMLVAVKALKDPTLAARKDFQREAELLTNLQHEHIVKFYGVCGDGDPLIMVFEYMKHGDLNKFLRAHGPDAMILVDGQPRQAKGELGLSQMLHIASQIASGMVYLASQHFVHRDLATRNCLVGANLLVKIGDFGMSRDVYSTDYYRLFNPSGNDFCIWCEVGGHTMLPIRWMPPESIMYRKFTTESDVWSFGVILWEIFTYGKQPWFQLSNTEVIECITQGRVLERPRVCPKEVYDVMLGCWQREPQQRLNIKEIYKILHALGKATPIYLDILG
Sequence of RAC-alpha serine/threonine-protein kinase (Homo sapiens) (P31749 whole entry): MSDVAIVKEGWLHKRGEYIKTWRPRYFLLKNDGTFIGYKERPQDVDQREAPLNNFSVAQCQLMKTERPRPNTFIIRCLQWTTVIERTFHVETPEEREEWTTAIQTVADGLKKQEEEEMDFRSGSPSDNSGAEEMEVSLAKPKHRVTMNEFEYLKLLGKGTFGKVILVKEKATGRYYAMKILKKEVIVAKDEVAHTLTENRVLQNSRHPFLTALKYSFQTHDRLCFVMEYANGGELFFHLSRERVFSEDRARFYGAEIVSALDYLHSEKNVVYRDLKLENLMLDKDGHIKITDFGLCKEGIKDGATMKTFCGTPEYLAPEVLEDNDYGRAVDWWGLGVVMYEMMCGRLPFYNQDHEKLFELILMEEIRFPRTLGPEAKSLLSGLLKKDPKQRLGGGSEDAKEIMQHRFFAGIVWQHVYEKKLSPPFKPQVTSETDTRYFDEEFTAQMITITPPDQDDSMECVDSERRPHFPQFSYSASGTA
Sequence of Albumin (P02768 whole entry): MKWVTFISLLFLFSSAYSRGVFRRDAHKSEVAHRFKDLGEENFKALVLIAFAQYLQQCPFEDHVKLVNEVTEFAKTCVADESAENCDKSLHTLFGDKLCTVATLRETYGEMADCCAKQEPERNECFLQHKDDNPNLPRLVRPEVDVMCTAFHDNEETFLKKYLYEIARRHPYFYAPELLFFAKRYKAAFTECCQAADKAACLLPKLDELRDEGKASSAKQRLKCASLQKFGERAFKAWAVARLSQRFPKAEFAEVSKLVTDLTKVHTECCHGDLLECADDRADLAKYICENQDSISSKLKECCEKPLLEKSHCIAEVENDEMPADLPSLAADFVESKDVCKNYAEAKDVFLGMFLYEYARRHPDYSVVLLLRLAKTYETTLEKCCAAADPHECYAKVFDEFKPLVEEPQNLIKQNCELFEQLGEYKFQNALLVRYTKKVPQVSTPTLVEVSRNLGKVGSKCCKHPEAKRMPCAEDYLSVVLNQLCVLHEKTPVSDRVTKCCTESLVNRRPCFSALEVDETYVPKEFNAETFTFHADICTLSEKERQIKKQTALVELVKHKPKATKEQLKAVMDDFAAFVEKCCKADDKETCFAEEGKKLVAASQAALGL

Compound | IC50 [1] [nM] | IC50 [2] [µM] | Activity (OVCAR-4) | Activity (MOLT-4) | Activity (MDA-MB-468) | GI50 (LOX IMVI) [nM] | Activity (SR) | Activity (NCI/ADR-RES) | Activity (Homo sapiens [3]) | inhibition [5] | inhibition [6] | inhibition [7] | inhibition [8] [%] | inhibition [9] | inhibition [10] | inhibition [11] | inhibition [12] [%] | inhibition [13] [%] | inhibition [14] [%] | inhibition [15] | further results
Cn1cncc1N1C=C(c2ccnc3[nH]ccc23)SCC1 | 25 | 5.56 | inactive | Active | Active | > 1000 | Active | inactive | Dose-dependent-effect | Active | < 50% | < 50% | < 50 | < 50% | < 50% | < 50% | < 50 | < 50 | < 50 | Active | ΔTm (Homo sapiens [4]): 6 °C; inhibition [16]: 47%
Cc1c[nH]c2ncnc(N3C=C(C(=O)N4CCC[C@@H](N)C4)SCC3)c12 | – | 3.4 | inactive | Active | Active | > 1000 | Active | inactive | Dose-dependent-effect | Active | Active | Active | – | Active | Active | Active | – | – | – | Active | solubility thermodynamic [17]: > 200 µM; PB (Albumin): 84%; Papp [18]: 0.1 10^-6 cm/s; Papp [19]: 6.6 10^-6 cm/s; t1/2 [20]: > 60 min; CLH [21]: < 115 µL/min/mg; Drug metabolism [22]: metabolite_notdetected; inhibition at 10 µM (hERG (KCNH2)): 28%; inhibition [23]: Active; inhibition [24]: Active; inhibition [25]: Active; inhibition [26]: > 50%; inhibition [27]: > 50%
Cn1c(Br)nc(Br)c1C1=CN(c2ncnc3[nH]cnc23)CCS1 | – | – | inactive | Active | Active | > 1000 | Active | inactive | – | – | – | – | – | – | – | – | – | – | – | – | GI50 [28]: 360 nM
C1=C(c2ccnc3[nH]ccc23)SCCN1c1ncnc2[nH]ccc12 | – | – | inactive | Active | Active | > 1000 | Active | inactive | – | Active | < 50% | < 50% | < 50 | < 50% | < 50% | < 50% | < 50 | < 50 | < 50 | Active | –
C1=C(c2ccnc3[nH]ccc23)SCCN1c1ccnc2[nH]ccc12 | 2800 | – | inactive | – | Active | > 1000 | – | inactive | – | – | – | – | – | – | – | – | – | – | – | – | GI50 [28]: 1550 nM; LC50 (MOLT-4): 780 nM; LC50 (SR): 600 nM
